Reference: article PMC9259847, “Baicalin Induces a Potent Innate Immune Response to Inhibit Respiratory Syncytial Virus Replication via Regulating Viral Non-Structural 1 and Matrix RNA” (Frontiers in Immunology, 2022)
pKd: −log10 of the molar value.

Biological target: T1, NS1 protein (RSV non-structural protein NS1) (Human respiratory syncytial virus A2, UniProt P0DOE9)
T1 construct: gene 1C; NS1 coupled to CM5 chip
Test: SPR (Biacore T200, NS1 coupled to CM5 chip)
Type: binding

T1 sequence (P0DOE9 whole entry): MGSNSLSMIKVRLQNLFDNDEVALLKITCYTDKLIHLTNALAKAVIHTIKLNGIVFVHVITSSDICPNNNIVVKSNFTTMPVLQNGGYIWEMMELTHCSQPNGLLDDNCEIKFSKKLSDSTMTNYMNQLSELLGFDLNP

O=C(O)[C@H]1O[C@@H](Oc2cc3oc(-c4ccccc4)cc(=O)c3c(O)c2O)[C@H](O)[C@@H](O)[C@@H]1O [baicalin]
pKd: 4.95
